{
  "source": "patent US12648948B2",
  "about": "“Methods and compositions for treating cancer” (UNITED STATES GOVERNMENT AS REPRESENTED BY THE DEPARTMENT …, priority 2017, dated 2026)",
  "key": {"Met": {"tested_on": "Met", "experiment": "Western blot, Met activation in glioma cells", "type": "cell-based, human", "conditions": "erlotinib; established cell lines and patient derived neurospheres", "protocol": "Western blot analysis was performed according to standard protocols."}, "[1]": {"tested_on": "AP-1 transcriptional activity", "experiment": "AP-1 luciferase reporter assay", "type": "cell-based, human", "conditions": "erlotinib 1 μM, 24 h; GBM9 and U87EGFRwt cells", "protocol": "Cells were plated in 48 well dishes to 70%-80% confluence followed by with […] or 3xAP1pGL3 reporter plasmid using lipofectamine 2000. A dual-luciferase reporter assay system was used according to manufacturer's instructions (Promega, Madison WI). Firefly luciferase activity was measured in a luminometer and normalized on the basis of Renilla luciferase activity. Experiments were done in triplicate and 3 independent experiments were done."}, "GAS6": {"tested_on": "GAS6", "experiment": "GAS6 expression (real time PCR, ELISA, Western blot)", "type": "cell-based, human", "conditions": "erlotinib; patient derived neurospheres and established GBM cell lines", "protocol": "Total RNA was isolated by TRIzol Reagent (Ambion). cDNA Reverse Transcription were performed by using High-Capacity cDNA Reverse Transcription Kit (Applied Biosystems). […] Each PCR was carried out in triplicate in a 20 μl volume using SYBR Green Master Mix (Applied Biosystems) for 15 minutes at 95° C. for initial denaturing, followed by 40 cycles of 95° C. for 15 s and 60° C. for 60 s in ViiA 7 Real-Time PCR System (Applied Biosystems). At least two independent experiments were done. Values for each gene were normalized to expression levels of GAPDH mRNA. The following primers were used: TNF, [NT] ID NO:3) and [NT] ID NO:4); […] GAPDH, [NT] ID NO:7) and [NT] ID NO:8). […] After 48 hours, supernatant and cell lysates were collected. Supernatant medium was concentrated 5-10-fold with Pierce protein concentrator (ThermoFisher). TNF protein concentration in supernatant, cell lysates and tissue extracts was determined by ELISA using a commercial TNF detection kit (ThermoFisher) according to manufacturer's instructions. Additionally, GAS6 protein concentration in supernatant was measured by ELISA kit (LifeSpan BioSciences)."}, "GAS6 promoter": {"tested_on": "GAS6 promoter", "experiment": "ChIP assay, c-Jun on the GAS6 promoter", "type": "cell-based, human", "conditions": "erlotinib 1 μM, 24 h; GBM9 and U87EGFRwt cells", "protocol": "GBM9 and U87EGFRwt cells were cultured in 15 cm plate per reaction for assay. ChIP assays were carried out using ChIP chromatin immunoprecipitation kit (Millipore) following manufacturer's instructions. The ChIP-enriched DNA samples were quantified by PCR using Platinum Taq DNA polymerase (Invitrogen). Putative AP-1 binding sites on GAS6 promoter were predicted by Using TFBIND program. The following primer pairs covering AP-1 sites were used: 5′-[…]-3′ (SEQ ID NO:1) and 5′-[…]-3′ (SEQ ID NO:2)."}, "[2]": {"tested_on": "U87EGFRwt and U87EGFRvIII cells", "experiment": "AlamarBlue cell viability assay, established GBM cell lines", "type": "cell-based, human", "conditions": "established GBM cell lines expressing EGFRwt or EGFRvIII, erlotinib 10 μM", "protocol": "Cell viability assay was conducted using AlamarBlue cell viability assay kit (ThermoFisher) following manufacturer's protocol. Cells were cultured in Corning 96-well black plates with clear bottom (5000 cells/well). Drugs were added to cells for 72 hour following detection using POLARstar Omega Microplate Reader (excitation at 544 nm and emission at 590 nm) (BMG LABTECH, Germany)."}, "GBM9 cells": {"tested_on": "GBM9 cells", "experiment": "Cell proliferation by cell counting (trypan blue dye exclusion)", "type": "cell-based, human", "conditions": "72 hours", "protocol": "FIG. 15A GBM9 cells were plated in 6 well plated and treated with drugs as indicated. Cell proliferation was measured through cell counting using the trypan blue dye exclusion test. […] Erlotinib vs erlotinib+SP: P=0.0016, t=7.60, d.f.=4; Erlotinib vs erlotinib+U: P=0.0012, t=8.24, d.f.=4."}, "TNF": {"tested_on": "TNF", "experiment": "TNF ELISA on GBM9 xenograft tumor extracts", "type": "in vivo, mice", "protocol": "(§1) To detect the in vivo levels of TNF, 1×10^6 GBM9 cells were injected into the right flanks of nude mice. When the subcutaneous tumor reached a volume of around 200 mm^3, the mice were treated with erlotinib to monitor the upregulation of TNF protein. The animals were dosed consecutively for 1, 2, 7 or 14 days and then sacrificed. The animals without treatment were considered as control (0-day treatment). Tumor tissues were rinsed in PBS and protein was extracted to analyze the TNF levels using ELISA and also used for western blot. To detect the protein expression in mice brain tumor tissues upon drug treatment, the same procedure was performed in orthotopic models. Additionally, with orthotopic models, mice were divided into four groups (control gavage group, erlotinib group, thalidomide group and erlotinib plus thalidomide, n=3). After 48 hours treatment tumors were harvested and subjected to Western blot and immunostaining."}, "[3]": {"tested_on": "JNK-Axl-ERK signaling axis", "experiment": "Signal transduction in intracranial GBM9 tumors (Western blot, IHC)", "type": "in vivo, mice", "conditions": "thalidomide given with erlotinib", "protocol": "as §1\nTumors from nude mice brains were fixed in 10% formalin and embedded in paraffin. Paraffin-embedded sections were cut at five-micrometer thickness. Immunohistochemical staining was performed using the ABC streptavidin-biotin method with the Vectastain ABC kit (Vector Laboratories, Burlingame, CA, USA) according to the manufacturer's protocol. Briefly, after deparaffinization and rehydration, endogenous peroxidase activity was quenched by a 10 min incubation in 3% H2O2. For antigen retrieval, the tissue sections were boiled in 10 mM sodium citrate buffer (pH 6.0) for 20 minutes. Binding of primary anti-pERK (1:100, Cell Signaling Technology, 4376) or anti-pJNK antibody (1:200, Cell signaling Technology, 4668) or anti-pAXL(1:400, R&D, AF2228) was carried out overnight at 4° C. The signal was detected by using the Sigmafast 3,3′-Diaminobenzidine tablets (DAB; Sigma, St. Louis MO). The sections were counterstained lightly with hematoxylin. The IHC staining intensity was scored semiquantitatively as: 0=No positive staining; 1=1-25% tumor cells stained, 2=26%-75% tumor cells stained and 3=>75% tumor cells stained."}, "GBM9 subcutaneous tumors": {"tested_on": "GBM9 subcutaneous tumors", "experiment": "Subcutaneous GBM9 xenograft tumor growth", "type": "in vivo, athymic nude mice", "conditions": "erlotinib 50 mg/kg oral gavage, SP600125 40 mg/kg i.p., thalidomide 150 mg/kg i.p., daily for 10 days", "protocol": "4 to 6 weeks old female athymic nude mice were purchased from Charles River Laboratories. The mice were housed in plastic cages (4-5 mice per cage) in a room with a 12 hour day-night cycle. 1×10^6 GBM9 cells were subcutaneously injected into the right flank of each nude mouse. […] The mice were randomly divided into control and treatment groups, mice were treated with drugs using the indicated doses. For combination treatment, both drugs were given concurrently for indicated periods. Tumor dimensions were measured by caliper every two days and tumor volumes calculated by the formula: volume=length×width×width/2. Mice were sacrificed when tumors reached over […] or 24 days from the first day of treatment."}, "[4]": {"conditions": "mouse, in vivo"}, "GBM": {"tested_on": "GBM", "conditions": "human, in vivo; cited from earlier work"}},
  "data": [
    {"smiles": "C#Cc1cccc(Nc2ncnc3cc(OCCOC)c(OCCOC)cc23)c1", "note": "[erlotinib]", "values": [
      {"measurement": "Met activation", "setting": "Met", "value": "induces activation of Met in established cell lines, but only in one patient derived neurosphere 987"},
      {"measurement": "AP-1 reporter activity", "setting": "[1]", "value": "increased activity of the AP-1 reporter"},
      {"measurement": "GAS6 expression", "setting": "GAS6", "value": "increase in GAS6"},
      {"measurement": "Binding of c-Jun to the GAS6 promoter", "setting": "GAS6 promoter", "value": "binding of cJun to the GAS6 promoter"},
      {"measurement": "Cell viability, erlotinib alone", "setting": "[2]", "value": "completely resistant"},
      {"measurement": "Cell growth / cell numbers, combination with erlotinib", "setting": "GBM9 cells", "value": "significant decreases in cell numbers"},
      {"measurement": "TNF level in subcutaneous mouse tumors", "setting": "TNF; GBM9 flank tumors, erlotinib 50 mg/kg", "value": "increase in TNF can be detected 1 day after administration of erlotinib"},
      {"measurement": "Time to upregulation of TNF in GBM xenograft tumors", "setting": "TNF; erlotinib", "value": "about 24 hours"},
      {"measurement": "JNK-Axl-ERK signaling axis in intracranial tumors (Western blot)", "setting": "[3]; erlotinib 50 mg/kg", "value": "Activation of the JNK-Axl-ERK signaling axis can be detected in intracranial tumors"},
      {"measurement": "pAxl, pJNK and pERK immunostaining of brain sections", "setting": "[3]; orthotopic model", "value": "higher expression of pAxl, pJNK and pERK compared to vehicle group"},
      {"measurement": "Growth of subcutaneous tumors", "setting": "GBM9 subcutaneous tumors", "value": "no significant effect on the growth of tumors"},
      {"measurement": "Body weight of orthotopic models", "setting": "[4]", "value": "Body weight losses"},
      {"measurement": "Clinical efficacy in GBM patients", "setting": "GBM", "value": "also not effective"}
    ]}
  ]
}
